Results taken from patent US10071105B2, “Formulations of deoxycholic acid and salts thereof” (Kythera Biopharmaceuticals, Inc., priority 2009, dated 2018).

Experiment: Reverse phase HPLC, degradation products (purity), stability study
Type: physicochemical
Conditions: storage two months (eight weeks) at 4° C., 25° C. and 37° C.
Description: Reverse phase HPLC was used along with visual observations which were conducted at each time point to monitor any precipitation or cloudiness.
The formulations were incubated at 4° C., 25° C. and 37° C. and analyzed for a) degradation products, b) pH stability and c) formulation clarity.
Reverse phase HPLC was used to visualize degradation products.

Compound: C[C@H](CCC(=O)[O-])[C@H]1CCC2C3CC[C@@H]4C[C@H](O)CC[C@]4(C)C3C[C@H](O)[C@@]21C.[Na+] (stereo partly drawn) [sodium deoxycholate, sodium (4R)-4-((3R,5R,10S,12S,13R,17R)-3,12-dihydroxy-10,13-dimethylhexadecahydro-1H-cyclopenta[a]phenanthren-17-yl)pentanoate]
- chemical degradation by reverse phase HPLC: no degradation
